± gives the expanded uncertainty stated by the source.
Columns and labels:
[1] = xn = mol fraction of the nth substance listed; settings: 308.15 K, 101.33 kPa, Liquid; for speed of sound: Linear variable-path acoustic interferometer
[2] = 101.33 kPa, Liquid; for speed of sound: Linear variable-path acoustic interferometer

CNC(C)=O [N-methylacetamide] + CCC(=O)c1ccccc1
[1], x2 = 0
Settings	excess molar volume [m3/mol]	speed of sound [m/s]
–	0 ± 2e-08	1360 ± 4.4

CNC(C)=O [N-methylacetamide] + CC(=O)c1ccc(Cl)cc1
[1], x2 = 0
Settings	excess molar volume [m3/mol]	speed of sound [m/s]
–	0 ± 2e-08	1360 ± 4.4

CC(=O)c1ccccc1 [acetophenone]
[2]
Settings	mass density [kg/m3]	speed of sound [m/s]
298.15 K	1023.1 ± 1.4	–
308.15 K	–	1445 ± 4.7

CCC(=O)c1ccccc1 [ethyl phenyl ketone]
[2]
Settings	mass density [kg/m3]	speed of sound [m/s]
298.15 K	1009.2 ± 1.4	–
308.15 K	–	1432.1 ± 4.6

CC(=O)c1ccc(C)cc1 [4'-methylacetophenone] + CNC(C)=O
[1]
Settings	excess molar volume [m3/mol]	speed of sound [m/s]
x1 = 0.0617	-1.519e-07 ± 2.1e-08	1368.9 ± 4.5
x1 = 0.1321	-2.517e-07 ± 2.2e-08	1377.7 ± 4.5
x1 = 0.2004	-3.355e-07 ± 2.2e-08	1385.8 ± 4.5
x1 = 0.2836	-3.41e-07 ± 2.2e-08	1394.4 ± 4.5
x1 = 0.3629	-3.52e-07 ± 2.2e-08	1402.4 ± 4.6
x1 = 0.4632	-3.458e-07 ± 2.2e-08	1411.5 ± 4.6
x1 = 0.5582	-3.114e-07 ± 2.2e-08	1418.4 ± 4.6
x1 = 0.689	-2.508e-07 ± 2.2e-08	1426.9 ± 4.6
x1 = 0.8305	-1.92e-07 ± 2.1e-08	1434 ± 4.7
x1 = 1	0 ± 2e-08	1437.9 ± 4.7

CCC(=O)c1ccccc1 [ethyl phenyl ketone] + CNC(C)=O
[1]
Settings	excess molar volume [m3/mol]	speed of sound [m/s]
x1 = 0.06	-2.003e-07 ± 2.1e-08	1368.3 ± 4.5
x1 = 0.1269	-3.185e-07 ± 2.2e-08	1374.7 ± 4.5
x1 = 0.1862	-3.356e-07 ± 2.2e-08	1380.6 ± 4.5
x1 = 0.2778	-2.912e-07 ± 2.2e-08	1388.9 ± 4.5
x1 = 0.3654	-2.106e-07 ± 2.1e-08	1397.8 ± 4.5
x1 = 0.4649	-1.397e-07 ± 2.1e-08	1406.6 ± 4.6
x1 = 0.5709	-8.14e-08 ± 2.1e-08	1413.5 ± 4.6
x1 = 0.6929	-1.92e-08 ± 2e-08	1419.6 ± 4.6
x1 = 0.8315	3.82e-08 ± 2e-08	1426.6 ± 4.6
x1 = 1	0 ± 2e-08	1432.1 ± 4.6

CNC(C)=O [N-methylacetamide] + CC(=O)c1ccccc1
[1]
Settings	excess molar volume [m3/mol]	speed of sound [m/s]
x2 = 0	0 ± 2e-08	1360 ± 4.4
x2 = 0.0686	-1.018e-07 ± 2.1e-08	1368.7 ± 4.5
x2 = 0.138	-1.732e-07 ± 2.1e-08	1376.6 ± 4.5
x2 = 0.2189	-2.437e-07 ± 2.2e-08	1386.8 ± 4.5
x2 = 0.3143	-2.579e-07 ± 2.2e-08	1398 ± 4.5
x2 = 0.3938	-2.476e-07 ± 2.2e-08	1406.1 ± 4.6
x2 = 0.4912	-2.365e-07 ± 2.1e-08	1415.3 ± 4.6
x2 = 0.6042	-1.695e-07 ± 2.1e-08	1424.2 ± 4.6
x2 = 0.7223	-1.212e-07 ± 2.1e-08	1431.4 ± 4.6
x2 = 0.8517	-5.09e-08 ± 2e-08	1438 ± 4.7

CNC(C)=O [N-methylacetamide]
[2], 308.15 K
Settings	mass density [kg/m3]	speed of sound [m/s]
–	949.7 ± 1.4	1360 ± 4.4

CC(=O)c1ccc(Cl)cc1 [4'-chloroacetophenone]
[2]
Settings	mass density [kg/m3]	speed of sound [m/s]
298.15 K	1188.9 ± 1.7	–
308.15 K	–	1390 ± 4.5

CC(=O)c1ccccc1 [acetophenone] + CNC(C)=O
[1], x1 = 1
Settings	excess molar volume [m3/mol]	speed of sound [m/s]
–	0 ± 2e-08	1445 ± 4.7

CC(=O)c1ccc(Cl)cc1 [4'-chloroacetophenone] + CNC(C)=O
[1]
Settings	excess molar volume [m3/mol]	speed of sound [m/s]
x1 = 0.0644	-2.11e-07 ± 2.1e-08	1363 ± 4.4
x1 = 0.1311	-3.3e-07 ± 2.2e-08	1366 ± 4.5
x1 = 0.2036	-4.53e-07 ± 2.3e-08	1369.3 ± 4.5
x1 = 0.2825	-5.363e-07 ± 2.3e-08	1372.4 ± 4.5
x1 = 0.3696	-5.889e-07 ± 2.3e-08	1375.8 ± 4.5
x1 = 0.4664	-5.934e-07 ± 2.4e-08	1379.5 ± 4.5
x1 = 0.5774	-5.393e-07 ± 2.3e-08	1382.6 ± 4.5
x1 = 0.7003	-4.298e-07 ± 2.3e-08	1385.1 ± 4.5
x1 = 0.8405	-2.52e-07 ± 2.2e-08	1387.6 ± 4.5
x1 = 1	0 ± 2e-08	1390 ± 4.5

CC(=O)c1ccc(C)cc1 [4'-methylacetophenone]
[2], 308.15 K
Settings	mass density [kg/m3]	speed of sound [m/s]
–	996.3 ± 1.5	1437.9 ± 4.7

CNC(C)=O [N-methylacetamide] + CC(=O)c1ccc(C)cc1
[1], x2 = 0
Settings	excess molar volume [m3/mol]	speed of sound [m/s]
–	0 ± 2e-08	1360 ± 4.4
